# Experimental data as given in US4294833A, “Substituted 4-hydroxy-isophthalic acid picolylamides having a pharmaceutical activity in thromboembolic disorders” (Societa Italo-Britannica, priority 1977, dated 1981).
# System: CaCl2-induced plasma coagulation
# Experiment: Anticoagulant activity on PRP, Hartert's thromboelastograph
# Type: in vivo, New Zealand rabbits
# Settings: Oryctolagus cuniculus, ip, percent increase of total time for coagulum formation (r+k) vs before treatment; 25 mg/kg intraperitoneal, rabbits; read-out: anticoagulant activity (AC)
# Description: Determination of the anticoagulant activity
# The anticoagulant activity was also assessed on PRP of animals treated as described in the preceding methods, by using again Hartert's thromboelastograph method.
# The plasma coagulation was induced by adding to 0.25 ml PRP a 1.29% solution of CaCl2.
# The anticoagulant effect was determined as a percent increase of the total time for the coagulum formation (the index r+k can be obtained from the thromboelastograph diagram) in a plasma after treatment, referred to the same index obtained before the treatment (control). Again the dose level was 25 mg/kg for each compound under examination, intraperitoneally.
# (§1) In tables I and II are further indicated for each compound the method of preparation; the melting point PF in °C; the platelet antiaggregant activity (AAP) expressed in terms of DI50 in mg/kg, referred to ADP and thrombin respectively; the antithrombin activity (AT) in %; the anticoagulant activity (AC) in %; the fibrinolytic activity (FL) in %; the acute toxicity (LD50) in mice, intraperitoneally, in mg/kg, as previously defined.
row,Structure (SMILES),change in vivo at 25 mg/kg [%]
1,C=CCOc1c(C(=O)NCc2cccnc2)cc(C(=O)NCc2cccnc2)cc1[N+](=O)[O-] [Example 36],11.9
2,CC(C)=COc1ccc(C(=O)NCc2cccnc2)cc1C(=O)NCc1cccnc1 [Example 55],19.2
3,CCN(Cc1cccnc1)C(=O)c1ccc(OC)c(C(=O)N(CC)Cc2cccnc2)c1 [Example 40],13.4
4,CC(C)(C)COc1c(C(=O)NCc2cccnc2)cc(C(=O)NCc2cccnc2)cc1[N+](=O)[O-] [Example 35],12.6
5,CC(C)Oc1ccc(C(=O)NCc2ccncc2)cc1C(=O)NCc1ccncc1 [Example 62],12
6,COc1c(Cl)cc(C(=O)N(Cc2ccncc2)C(C)C)cc1C(=O)N(Cc1ccncc1)C(C)C [Example 71],25.6
7,C=CCOc1ccc(C(=O)NCc2ccncc2)cc1C(=O)NCc1ccncc1 [Example 61],15.6
8,CC=COc1c(Cl)cc(C(=O)N(CCC(C)C)Cc2cccnc2)cc1C(=O)N(CCC(C)C)Cc1cccnc1 [Example 49],15.3
9,C=CC(C)Oc1ccc(C(=O)NCc2ccncc2)cc1C(=O)NCc1ccncc1 (stereo not drawn) [Example 64],19.2
10,CC(C)CCOc1c(Cl)cc(C(=O)NCc2cccnc2)cc1C(=O)NCc1cccnc1 [Example 27],23.8
11,CC(C)Oc1ccc(C(=O)NCc2cccnc2)cc1C(=O)NCc1cccnc1 [Example 12],12.7

# System: platelet aggregation induced by ADP
# Experiment: Platelet aggregation inhibitory activity in vivo (Born aggregometer), ADP-induced
# Set-up: species or system New Zealand rabbits
# Settings: Oryctolagus cuniculus, Platelet, ip, dose for 50% inhibition of ADP-induced aggregation curve; rabbits, intraperitoneal, blood 2, 4 and 6 hours after injection; read-out: platelet antiaggregant activity (AAP), DI50, ADP
# Description: (§2) Determination of the platelet aggregation inhibitory activity in vivo
# (§3) The activity of the above described compounds as platelet antiaggregant was tested in vivo on rabbits, by the Born aggregometer. The inhibition of the aggregation curve induced by ADP and thrombin was assessed with different drug concentrations according to the platelet reactivity. New Zealand rabbits which had been held fasting for 12 hours with water ad libitum, were anaesthetized with Nembutal in a dose of 35 mg/kg intramuscolarly. The blood was withdrawn from the carotidal arthery, before (control) and 2, 4, and 6 hours after the intraperitoneal injection of the compounds under examination (at the dose indicated below). The blood samples were taken up in a 3.8% aqueous solution of sodium citrate in a ratio 10:1 and thereupon centrifuged at 1500 r.p.m. for 10 minutes, for obtaining a PRP (platelet rich plasma). A portion of such a plasma was thereupon centrifuged at 8000 r.p.m. for 10 minutes, for obtaining a PPP (platelet lean plasma) which was used for zeroing the measuring apparatus.
# (§4) From the results of said experiments, there was determined the dose of each product in mg/kg body weight able to induce a 50% inhibition of the aggregation curve (DI50) after treatment, referred to the curve obtained by the same control plasma before treatment.
# as §1
row,Structure (SMILES),ED50 [mg/kg]
1,C=CCOc1c(C(=O)NCc2cccnc2)cc(C(=O)NCc2cccnc2)cc1[N+](=O)[O-] [Example 36],36.3
2,CC(C)=COc1ccc(C(=O)NCc2cccnc2)cc1C(=O)NCc1cccnc1 [Example 55],28.2
3,CCN(Cc1cccnc1)C(=O)c1ccc(OC)c(C(=O)N(CC)Cc2cccnc2)c1 [Example 40],60.2
4,CC(C)(C)COc1c(C(=O)NCc2cccnc2)cc(C(=O)NCc2cccnc2)cc1[N+](=O)[O-] [Example 35],37.1
5,CC(C)Oc1ccc(C(=O)NCc2ccncc2)cc1C(=O)NCc1ccncc1 [Example 62],46.8
6,COc1c(Cl)cc(C(=O)N(Cc2ccncc2)C(C)C)cc1C(=O)N(Cc1ccncc1)C(C)C [Example 71],28.1
7,C=CCOc1ccc(C(=O)NCc2ccncc2)cc1C(=O)NCc1ccncc1 [Example 61],28.6
8,CC=COc1c(Cl)cc(C(=O)N(CCC(C)C)Cc2cccnc2)cc1C(=O)N(CCC(C)C)Cc1cccnc1 [Example 49],49
9,C=CC(C)Oc1ccc(C(=O)NCc2ccncc2)cc1C(=O)NCc1ccncc1 (stereo not drawn) [Example 64],35.1
10,CC(C)CCOc1c(Cl)cc(C(=O)NCc2cccnc2)cc1C(=O)NCc1cccnc1 [Example 27],40
11,CC(C)Oc1ccc(C(=O)NCc2cccnc2)cc1C(=O)NCc1cccnc1 [Example 12],50.2

# System: blood coagulum
# Experiment: Fibrinolytic activity, Fearnley method (lysis of blood coagulum in toto)
# Type: in vivo
# Settings: Oryctolagus cuniculus, ip, 0.5 h, percent decrease of coagulum weight after 30 minutes at 37° C.; 25 mg/kg intraperitoneal, rabbits; read-out: fibrinolytic activity (FL)
# Description: Determination of the fibrinolytic activity
# The determination of the fibrinolytic activity was made following the Fearnley method for the lysis of the blood coagulum in toto.
# 0.2 ml of blood were withdrawn from the marginal vein of the ear of rabbits treated in the same way as the previously described tests, before and after an intraperitoneal injection of the compounds under test at a dose level of 25 mg/kg for each compound.
# The blood samples were placed in test tubes containing 1.7 ml of phosphate buffer at pH 7.4 and 0.1 ml of thrombin (Roche Topostasin ® per os) at 50 units NIH/ml, and maintained in an ice bath. The test tubes were maintained at said temperature for 30 minutes and thereupon were transferred to a temperature controlled water bath at 37° C.
# The fibrinolytic activity was determined as a percent decrease of the coagulum weight, measured after incubation for 30 minutes at 37° C.
# as §1
row,Structure (SMILES),fibrinolytic activity (percent decrease of coagulum weight) at 25 mg/kg [%]
1,C=CCOc1c(C(=O)NCc2cccnc2)cc(C(=O)NCc2cccnc2)cc1[N+](=O)[O-] [Example 36],19.1
2,CC(C)=COc1ccc(C(=O)NCc2cccnc2)cc1C(=O)NCc1cccnc1 [Example 55],29.5
3,CCN(Cc1cccnc1)C(=O)c1ccc(OC)c(C(=O)N(CC)Cc2cccnc2)c1 [Example 40],20.6
4,CC(C)(C)COc1c(C(=O)NCc2cccnc2)cc(C(=O)NCc2cccnc2)cc1[N+](=O)[O-] [Example 35],20.2
5,CC(C)Oc1ccc(C(=O)NCc2ccncc2)cc1C(=O)NCc1ccncc1 [Example 62],21.7
6,COc1c(Cl)cc(C(=O)N(Cc2ccncc2)C(C)C)cc1C(=O)N(Cc1ccncc1)C(C)C [Example 71],47.7
7,C=CCOc1ccc(C(=O)NCc2ccncc2)cc1C(=O)NCc1ccncc1 [Example 61],45
8,CC=COc1c(Cl)cc(C(=O)N(CCC(C)C)Cc2cccnc2)cc1C(=O)N(CCC(C)C)Cc1cccnc1 [Example 49],21.7
9,C=CC(C)Oc1ccc(C(=O)NCc2ccncc2)cc1C(=O)NCc1ccncc1 (stereo not drawn) [Example 64],33.6
10,CC(C)CCOc1c(Cl)cc(C(=O)NCc2cccnc2)cc1C(=O)NCc1cccnc1 [Example 27],28.8
11,CC(C)Oc1ccc(C(=O)NCc2cccnc2)cc1C(=O)NCc1cccnc1 [Example 12],20.2

# System: thrombin-induced coagulation of platelet rich plasma
# Experiment: Antithrombin activity on PRP, Hartert's thromboelastograph
# Type: in vivo, New Zealand rabbits
# Settings: Oryctolagus cuniculus, Platelet, ip, percent decrease of index ma/[r+k] vs before treatment; 20 mg/kg intraperitoneal, rabbits
# Description: Determination of the antithrombin activity
# The antithrombin activity on the PRP (platelet rich plasma) obtained following the above described method was assessed by Hartert's thromboelastograph (Hellige model). The coagulation was induced by adding to 0.25 ml of plasma 0.06 ml of a thrombin solution (Roche Topostasin® per os) at 60 units*, pH 7.4**. The antithrombin activity was assessed in terms of a percent decrease of the index (ma/[r+k]) which was calculated from the thromboelastograph diagram, wherein r is the reaction time, k is the speed of the coagulum formation and ma is the maximum spread of the tong, after an intraperitoneal treatment with a dose of 20 mg/kg of each compound under examination, referred to the same index obtained before the treatment (control).
# as §1
row,Structure (SMILES),inhibition in vivo at 20 mg/kg [%]
1,C=CCOc1c(C(=O)NCc2cccnc2)cc(C(=O)NCc2cccnc2)cc1[N+](=O)[O-] [Example 36],23
2,CC(C)=COc1ccc(C(=O)NCc2cccnc2)cc1C(=O)NCc1cccnc1 [Example 55],32.5
3,CCN(Cc1cccnc1)C(=O)c1ccc(OC)c(C(=O)N(CC)Cc2cccnc2)c1 [Example 40],28.9
4,CC(C)(C)COc1c(C(=O)NCc2cccnc2)cc(C(=O)NCc2cccnc2)cc1[N+](=O)[O-] [Example 35],25.4
5,CC(C)Oc1ccc(C(=O)NCc2ccncc2)cc1C(=O)NCc1ccncc1 [Example 62],26.5
6,COc1c(Cl)cc(C(=O)N(Cc2ccncc2)C(C)C)cc1C(=O)N(Cc1ccncc1)C(C)C [Example 71],53.9
7,C=CCOc1ccc(C(=O)NCc2ccncc2)cc1C(=O)NCc1ccncc1 [Example 61],52.8
8,CC=COc1c(Cl)cc(C(=O)N(CCC(C)C)Cc2cccnc2)cc1C(=O)N(CCC(C)C)Cc1cccnc1 [Example 49],27.9
9,C=CC(C)Oc1ccc(C(=O)NCc2ccncc2)cc1C(=O)NCc1ccncc1 (stereo not drawn) [Example 64],45.9
10,CC(C)CCOc1c(Cl)cc(C(=O)NCc2cccnc2)cc1C(=O)NCc1cccnc1 [Example 27],35.1
11,CC(C)Oc1ccc(C(=O)NCc2cccnc2)cc1C(=O)NCc1cccnc1 [Example 12],25.6

# System: not listed separately
# Experiment: Acute toxicity, intraperitoneal
# Settings: mouse, in vivo, ip, male Swiss mice, intraperitoneal, 7 days observation; preliminary, by graphic interpolation; read-out: acute toxicity (LD50 / DL50)
# Description: The acute toxicity limit was determined intraperitoneally on male Swiss mice, weighing 20±2 g, held fasting for 18 hours with water ad libitum.
# The animals were maintained under observation for 7 days of treatment, by examining the general symptomatology and noting the death sequency. The preliminary DL50 in mg/kg body weight was calculated by graphic interpolation of the results as obtained.
# as §1
row,Structure (SMILES),LD50 at 168 h [mg/kg]
1,C=CCOc1c(C(=O)NCc2cccnc2)cc(C(=O)NCc2cccnc2)cc1[N+](=O)[O-] [Example 36],267
2,CC(C)=COc1ccc(C(=O)NCc2cccnc2)cc1C(=O)NCc1cccnc1 [Example 55],338
3,CCN(Cc1cccnc1)C(=O)c1ccc(OC)c(C(=O)N(CC)Cc2cccnc2)c1 [Example 40],605
4,CC(C)(C)COc1c(C(=O)NCc2cccnc2)cc(C(=O)NCc2cccnc2)cc1[N+](=O)[O-] [Example 35],194
5,CC(C)Oc1ccc(C(=O)NCc2ccncc2)cc1C(=O)NCc1ccncc1 [Example 62],618
6,COc1c(Cl)cc(C(=O)N(Cc2ccncc2)C(C)C)cc1C(=O)N(Cc1ccncc1)C(C)C [Example 71],384
7,C=CCOc1ccc(C(=O)NCc2ccncc2)cc1C(=O)NCc1ccncc1 [Example 61],392
8,CC=COc1c(Cl)cc(C(=O)N(CCC(C)C)Cc2cccnc2)cc1C(=O)N(CCC(C)C)Cc1cccnc1 [Example 49],193
9,C=CC(C)Oc1ccc(C(=O)NCc2ccncc2)cc1C(=O)NCc1ccncc1 (stereo not drawn) [Example 64],360
10,CC(C)CCOc1c(Cl)cc(C(=O)NCc2cccnc2)cc1C(=O)NCc1cccnc1 [Example 27],195
11,CC(C)Oc1ccc(C(=O)NCc2cccnc2)cc1C(=O)NCc1cccnc1 [Example 12],615

# System: platelet aggregation induced by thrombin
# Experiment: Platelet aggregation inhibitory activity in vivo (Born aggregometer), thrombin-induced
# Set-up: species or system New Zealand rabbits
# Settings: Oryctolagus cuniculus, Platelet, ip, dose for 50% inhibition of thrombin-induced aggregation curve; rabbits, intraperitoneal, blood 2, 4 and 6 hours after injection; read-out: platelet antiaggregant activity (AAP), DI50, Thrombin
# Description: as §2, §3, §4, §1
row,Structure (SMILES),ED50 [mg/kg]
1,C=CCOc1c(C(=O)NCc2cccnc2)cc(C(=O)NCc2cccnc2)cc1[N+](=O)[O-] [Example 36],27.1
2,CC(C)=COc1ccc(C(=O)NCc2cccnc2)cc1C(=O)NCc1cccnc1 [Example 55],20.5
3,CCN(Cc1cccnc1)C(=O)c1ccc(OC)c(C(=O)N(CC)Cc2cccnc2)c1 [Example 40],42.3
4,CC(C)(C)COc1c(C(=O)NCc2cccnc2)cc(C(=O)NCc2cccnc2)cc1[N+](=O)[O-] [Example 35],29.7
5,CC(C)Oc1ccc(C(=O)NCc2ccncc2)cc1C(=O)NCc1ccncc1 [Example 62],32.3
6,COc1c(Cl)cc(C(=O)N(Cc2ccncc2)C(C)C)cc1C(=O)N(Cc1ccncc1)C(C)C [Example 71],19.6
7,C=CCOc1ccc(C(=O)NCc2ccncc2)cc1C(=O)NCc1ccncc1 [Example 61],19.5
8,CC=COc1c(Cl)cc(C(=O)N(CCC(C)C)Cc2cccnc2)cc1C(=O)N(CCC(C)C)Cc1cccnc1 [Example 49],30.2
9,C=CC(C)Oc1ccc(C(=O)NCc2ccncc2)cc1C(=O)NCc1ccncc1 (stereo not drawn) [Example 64],24
10,CC(C)CCOc1c(Cl)cc(C(=O)NCc2cccnc2)cc1C(=O)NCc1cccnc1 [Example 27],27.9
11,CC(C)Oc1ccc(C(=O)NCc2cccnc2)cc1C(=O)NCc1cccnc1 [Example 12],30.9
